Reference: patent publication US7851493B2, “Phenyl-1,2,4-oxadiazolone derivatives with phenyl group, processes for their preparation and their use as pharmaceuticals” (Sanofi-Aventis, priority 2005, dated 2010)
Like-named read-outs stand apart in the source and are kept apart here.

Assays:
[1] = diabetic animal model; cited from earlier work
[2] = rhesus and cynomolgus monkeys; cited from earlier work
[3] = two weeks clinical trials in healthy volunteers; cited from earlier work
[4] = molecular target: T1, human PPARdelta (Homo sapiens, UniProt Q03181); test: Cellular PPARdelta assay (human GAL4 luciferase reporter, stably transfected HEK cell line); assay type: cell-based
T1 construct: amino acids S139-Y441; expressed in transfected cells; plasmid pcDNA3
T1 sequence (Q03181 139-441): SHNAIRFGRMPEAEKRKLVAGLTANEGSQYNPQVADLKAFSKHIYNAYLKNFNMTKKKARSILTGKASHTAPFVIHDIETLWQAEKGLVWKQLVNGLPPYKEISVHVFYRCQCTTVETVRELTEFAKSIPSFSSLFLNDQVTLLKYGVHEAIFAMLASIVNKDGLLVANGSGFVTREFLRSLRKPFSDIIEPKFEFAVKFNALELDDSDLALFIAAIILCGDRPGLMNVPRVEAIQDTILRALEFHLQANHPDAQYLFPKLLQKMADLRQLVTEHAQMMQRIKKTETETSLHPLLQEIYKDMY
Experimental: Determination of EC50 Values of PPAR Agonists in the Cellular PPARdelta Assay
(§1) The potency of substances which bind to human PPARdelta and activate it in an agonistic manner is analyzed using a stably transfected HEK cell line (HEK=human embryo kidney) which is referred to here as PPARdelta reporter cell line. In analogy to the assay described for PPARalpha, the PPARdelta reporter cell line also contains two genetic elements, a luciferase reporter element (pdeltaM-GAL4-Luc-Zeo) and a PPARdelta fusion protein (GR-GAL4-humanPPARdelta-LBD) which mediates expression of the luciferase reporter element depending on a PPARdelta ligand. The stably and constitutively expressed fusion protein GR-GAL4-humanPPARdelta-LBD binds in the cell nucleus of the PPARdelta reporter cell line via the GAL4 protein portion to the GAL4 DNA binding motifs 5′-upstream of the luciferase reporter element which is stably integrated in the genome of the cell line. There is only little expression of the luciferase reporter gene in the absence of a PPARdelta ligand if fatty acid-depleted fetal calf serum (cs-FCS) is used in the assay. PPARdelta ligands bind and activate the PPARdelta fusion protein and thereby stimulate expression of the luciferase reporter gene. The luciferase which is formed can be detected by means of chemiluminescence via an appropriate substrate.
Construction of the PPARdelta Reporter Cell Line
The production of the stable PPARdelta reporter cell line is based on a stable HEK-cell clone which was stably transfected with a luciferase reporter element. This step was already described above in the section “construction of the PPARalpha reporter cell line”. In a second step, the PPARdelta fusion protein (GR-GAL4-humanPPARdelta-LBD was stably introduced into this cell clone. For this purpose, the cDNA coding for the N-terminal 76 amino acids of the glucocorticoid receptor (Accession #P04150) was linked to the cDNA section coding for amino acids 1-147 of the yeast transcription factor GAL4 (Accession #P04386). The cDNA of the ligand-binding domain of the human PPARdelta receptor (amino acids S139-Y441; Accession #L07592) was cloned in at the 3′-end of this GR-GAL4 construct. The fusion construct prepared in this way (GR-GAL4-humanPPARdelta-LBD) was recloned into the plasmid pcDNA3 (Invitrogen) in order to enable constitutive expression by the cytomegalovirus promoter. This plasmid was linearized with a restriction endonuclease and stably transfected into the previously described cell clone containing the luciferase reporter element. The resulting PPARdelta reporter cell line which contains a luciferase reporter element and constitutively expresses the PPARdelta fusion protein (GR-GAL4-human PPARdelta-LBD) was isolated by selection with zeocin (0.5 mg/ml) and G418 (0.5 mg/ml).
Assay Procedure and Evaluation
The activity of PPARdelta agonists is determined in a 3-day assay in exact analogy to the procedure already described for the PPARalpha reporter cell line except that the PPARdelta reporter cell line and a specific PPARdelta agonist was used as a standard to control test efficacy.

[5] = molecular target: T2, human PPARalpha (Homo sapiens, UniProt Q07869); test: Cellular PPARalpha assay (human GAL4 luciferase reporter, stably transfected HEK cell line); assay type: cell-based
T2 construct: amino acids S167-Y468; expressed in transfected cells; plasmid pcDNA3
T2 sequence (Q07869 167-468): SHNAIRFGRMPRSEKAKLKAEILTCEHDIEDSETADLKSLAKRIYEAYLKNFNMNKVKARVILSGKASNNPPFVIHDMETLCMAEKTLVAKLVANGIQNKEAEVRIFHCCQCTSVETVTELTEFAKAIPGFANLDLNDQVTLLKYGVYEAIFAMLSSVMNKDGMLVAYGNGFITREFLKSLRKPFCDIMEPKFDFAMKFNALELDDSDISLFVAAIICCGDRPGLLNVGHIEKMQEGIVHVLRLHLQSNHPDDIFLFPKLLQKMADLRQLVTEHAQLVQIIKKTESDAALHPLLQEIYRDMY
Experimental: Determination of EC50 Values of PPAR Agonists in the Cellular PPARalpha Assay
as §1, with “PPARalpha” for “PPARdelta”, “It” for “In analogy to the assay described for PPARalpha, the PPARdelta reporter cell line also”, “(GR-GAL4-humanPPARalpha-LBD)” for “(GR-GAL4-humanPPARdelta-LBD)”, “GR-GAL4-humanPPARalpha-LBD” for “GR-GAL4-humanPPARdelta-LBD”, “weak” for “little”, “stimulate the” for “stimulate”
Construction of the PPARalpha Reporter Cell Line
The PPARalpha reporter cell line was prepared in two stages. Firstly, the luciferase reporter element was constructed and stably transfected into HEK cells. For this purpose, five binding sites of the yeast transcription factor GAL4 (Accession #AF264724) were cloned in 5′-upstream of a 68 bp-long minimal MMTV promoter (Accession #V01175). The minimal MMTV promoter section contains a […] and a TATA element in order to enable efficient transcription by RNA polymerase II. The cloning and sequencing of the GAL4-MMTV construct took place in analogy to the description of Sambrook J. et al. (Molecular cloning, Cold Spring Harbor Laboratory Press, 1989). Then the complete Photinus pyralis gene (Accession #15077) was cloned in 3′-downstream of the GAL4-MMTV element. After sequencing, the luciferase reporter element consisting of five GAL4 binding sites, MMTV promoter and luciferase gene was recloned into a plasmid which confers zeocin resistance in order to obtain the plasmid pdeltaM-GAL4-Luc-Zeo. This vector was transfected into HEK cells in accordance with the statements in Ausubel, F. M. et al. (Current protocols in molecular biology, Vol. 1-3, John Wiley & Sons, Inc., 1995).
In a second step, the PPARalpha fusion protein (GR-GAL4-humanPPARalpha-LBD was introduced into the stable cell clone described. For this purpose, initially the cDNA coding for the N-terminal 76 amino acids of the glucocorticoid receptor (Accession #P04150) was linked to the cDNA section coding for amino acids 1-147 of the yeast transcription factor GAL4 (Accession #P04386). The cDNA of the ligand-binding domain of the human PPARalpha receptor (amino acids S167-Y468; Accession #S74349) was cloned in at the 3′-end of this GR-GAL4 construct. The fusion construct prepared in this way (GR-GAL4-humanPPARalpha-LBD) was recloned into the plasmid pcDNA3 (Invitrogen) in order to enable constitutive expression therein by the cytomegalovirus promoter. This plasmid was linearized with a restriction endonuclease and stably transfected into the previously described cell clone containing the luciferase reporter element. The finished PPARalpha reporter cell line which contains a luciferase reporter element and constitutively expresses the PPARalpha fusion protein (GR-GAL4-human PPARalpha-LBD) was isolated by selection with zeocin (0.5 mg/ml) and G418 (0.5 mg/ml).
The activity of PPARalpha agonists is determined in a 3-day assay, which is described below: […]

Row | Compound | plasma cholesterol [1] | plasma lipids [2] | plasma lipids [3] | EC50 [4] [µM] | EC50 [5] [µM]
1 | CCCc1c(OCCCOc2ccc(OCC(=O)O)cc2)ccc(C(C)=O)c1O [Example L-165041] | raises |  |  |  | 
2 | CCCc1c(OCCCSc2nnc(SCC(=O)O)s2)ccc(C(C)=O)c1O [YM-16638] |  | significantly lowers | acts in a similar manner |  | 
3 | COc1cc(OCc2sc(-c3ccc(C(F)(F)F)cc3)nc2CSC)ccc1-c1noc(=O)[nH]1 [Example 89, 3-{2-Methoxy-4-[4-methylsulfanylmethyl-2-(4-trifluoromethyl-phenyl)-thiazol-5-ylmethoxy]-phenyl}-4H-1,2,4-oxadiazol-5-one] |  |  |  | 0.153 | 2.62
4 | CC(=O)OCc1nc(-c2ccc(C(F)(F)F)cc2)sc1COc1ccc(-c2noc(=O)[nH]2)c(F)c1 [Example 33, Acetic acid 5-[3-fluoro-4-(5-oxo-4,5-dihydro-[1,2,4]oxadiazol-3-yl)-phenoxymethyl]-2-(4-trifluoromethyl-phenyl)-thiazol-4-ylmethyl ester] |  |  |  | 0.299 | 1.41
5 | COc1ccc(-c2nc(COc3ccc(-c4noc(=O)[nH]4)c(C)c3)c(CN3CCOCC3)o2)cc1 [Example 68, 3-{4-[2-(4-Methoxy-phenyl)-5-morpholin-4-ylmethyl-oxazol-4-ylmethoxy]-2-methyl-phenyl}-4H-[1,2,4]oxadiazol-5-one] |  |  |  | 0.661 | 1.2
